Measurements from patent US8501754B2, “Quinazolinamide derivatives” (MERCK PATENT GmbH, priority 2007, dated 2013).

Biological target: Recombinant human HSP90a (Homo sapiens, UniProt P07900)
Experiment: radioligand filter binding test ([3H]17AAG competition) for HSP90 inhibition
Details: competition with [3H]17AAG 0.08 μM, HSP90 1.5 μg/assay, 22° C., 30 min
Excerpt: Test Method for the Measurement of HSP90 Inhibitors
The binding of geldanamycin or 17-allylamino-17-demethoxygeldanamycin (17AAG) to HSP90 and competitive inhibition thereof can be utilized in order to determine the inhibitory activity of the compounds according to the invention (Carreras et al. 2003, Chiosis et al. 2002).
In the specific case, a radioligand filter binding test is used. The radioligand used here is tritium-labelled 17-allylaminogeldanamycin, [3H]17AAG. This filter binding test allows a targeted search for inhibitors which interfere with the ATP binding site.
Recombinant human HSP90a (E. coli expressed, 95% purity);
[3H]17AAG (17-allylaminogeldanamycin, [allylamino-2,3-^3H. Specific activity: 1.11×10^12 Bq/mmol (Moravek, MT-1717);
HEPES filter buffer (50 mM HEPES, pH 7.0, 5 mM MgCl2, BSA 0.01%) Multiscreen FB (1 μm) filter plate (Millipore, MAFBNOB 50).
The 96-well microtitre filter plates are firstly irrigated and coated with 0.1% of polyethylenimine.
The test is carried out under the following conditions:
Reaction temperature 22° C.
Reaction time: 30 min., shaking at 800 rpm
50 mM HEPES HCl, pH 7.0, 5 mM MgCl2, 0.01% (w/v) of BSA
At the end of the reaction, the supernatant in the filter plate is removed by suction with the aid of a vacuum manifold (Multiscreen Separation System, Millipore), and the filter is washed twice.
The filter plates are then measured in a beta counter (Microbeta, Wallac) with scintillator (Microscint 20, Packard).
“% of control” is determined from the “counts per minutes” values, and the IC-50 value of a compound is calculated therefrom.

Molecule | IC50
Nc1nc(C(=O)N2Cc3ccccc3C2)c2cc(Oc3ccccc3)ccc2n1 [Compound A946] | 10 to 1000 nM
Nc1nc(C(=O)N2Cc3ccccc3C2)c2cc(NC3CCCCC3)ccc2n1 [Compound A949] | 10 to 1000 nM
CN1CCN(S(=O)(=O)c2ccccc2-c2ccc3nc(N)nc(C(=O)N4Cc5ccccc5C4)c3c2)CC1 [Compound A980, {2-amino-6-[2-(4-methylpiperazine-1-sulfonyl)phenyl]quinazolin-4-yl}-(1,3-dihydroisoindol-2-yl)methanone] | 10 to 1000 nM
CCN(CC)C(=O)c1nc(N)nc2ccc(C)cc12 [Compound A77, 2-Amino-6-methyl-4-diethylcarbamoylquinazoline] | 1000 to 10000 nM
Nc1nc(C(=O)N2Cc3ccccc3C2)c2cc(-c3ccccc3C=O)ccc2n1 [Compound A969, 2-[2-amino-4-(1,3-dihydroisoindole-2-carbonyl)quinazolin-6-yl]benzaldehyde] | 10 to 1000 nM
Nc1nc(C(=O)N2Cc3ccccc3C2)c2cc(-c3ccccc3S(=O)(=O)N3CCNCC3)ccc2n1 [Compound A981] | 10 to 1000 nM
COc1ccc(Cl)cc1CN(C)C(=O)c1nc(N)nc2ccccc12 [Compound A72, 2-Amino-4-[(3-chloro-6-methoxybenzyl)methylcarbamoyl]quinazoline] | > 10000 nM
CN(Cc1ccc(F)cc1)C(=O)c1nc(N)nc2ccccc12 [Compound A73, 2-Amino-4-[(4-fluorobenzyl)methylcarbamoyl]quinazoline] | > 10000 nM
2-Amino-4-propylethylcarbamoylquinazoline [Compound A11] | 1000 to 10000 nM
Nc1nc(C(=O)N2Cc3ccccc3C2)c2cc(-c3ccccc3CNCCO)ccc2n1 [Compound A972] | 10 to 1000 nM
CC(C)c1ccc2nc(N)nc(C(=O)N3Cc4ccc(Br)cc4C3)c2c1 [Compound A117, 2-Amino-6-isopropyl-4-(5-bromo-1,3-dihydroisoindol-2-ylcarbonyl)quinazoline] | 1000 to 10000 nM
CN(C)C(=O)c1nc(N)nc2ccccc12 [Compound A5, 2-Amino-4-dimethylcarbamoylquinazoline] | > 10000 nM
Nc1nc(C(=O)N2Cc3ccccc3C2)c2cc(-c3cccc(O)c3)ccc2n1 [Compound A925, 2-Amino-6-(3-hydroxyphenyl)-4-(1,3-dihydroisoindol-2-ylcarbonyl)quinazoline] | 1000 to 10000 nM
COCCNCc1ccccc1-c1ccc2nc(N)nc(C(=O)N3Cc4ccccc4C3)c2c1 [Compound A976] | 10 to 1000 nM
CCCN(C)C(=O)c1nc(N)nc2ccccc12 [Compound A10, 2-Amino-4-propylmethylcarbamoylquinazoline] | > 10000 nM
CC(C)N(C)C(=O)c1nc(N)nc2ccccc12 [Compound A8, 2-Amino-4-isopropylmethylcarbamoylquinazoline] | > 10000 nM
CN(C)Cc1ccccc1-c1ccc2nc(N)nc(C(=O)N3Cc4ccccc4C3)c2c1 [Compound A975] | 10 to 1000 nM
N#CCc1cccc(-c2ccc3nc(N)nc(C(=O)N4Cc5ccccc5C4)c3c2)c1 [Compound A919, 2-Amino-6-(3-cyanomethylphenyl)-4-(1,3-dihydroisoindol-2-ylcarbonyl)quinazoline] | 10 to 1000 nM
Nc1nc(C(=O)N2Cc3ccccc3C2)c2cc(-c3ccccc3OC(F)(F)F)ccc2n1 [Compound A240] | 10 to 1000 nM
CN1CCN(Cc2ccccc2-c2ccc3nc(N)nc(C(=O)N4Cc5ccccc5C4)c3c2)CC1 [Compound A970, {2-amino-6-[2-(4-methylpiperazin-1-ylmethyl)phenyl]quinazolin-4-yl}-(1,3-dihydroisoindol-2-yl)methanone] | 10 to 1000 nM
Nc1nc(C(=O)N2Cc3ccccc3C2)c2cc(-c3cc4ccccc4o3)ccc2n1 [Compound A921, 2-Amino-6-(benzofuran-2-yl)-4-(1,3-dihydroisoindol-2-ylcarbonyl)quinazoline] | 1000 to 10000 nM
Nc1nc(C(=O)N2Cc3ccccc3C2)c2cc(-c3ccccc3O)ccc2n1 [Compound A335, [2-amino-6-(2-hydroxyphenyl)quinazolin-4-yl]-(1,3-dihydroisoindol-2-yl)methanone] | 10 to 1000 nM

Molecule | IC50
Nc1nc(C(=O)N2Cc3ccccc3C2)c2cc(NCc3ccccc3)ccc2n1 [Compound A950] | 1000 to 10000 nM
Nc1nc(C(=O)N2Cc3ccccc3C2)c2cc(C#CCO)ccc2n1 [Compound A964, 2-amino-6-(3-hydroxyprop-1-ynyl)-4-(1,3-dihydroisoindol-2-ylcarbonyl)quinazoline] | 10 to 1000 nM
Nc1nc(C(=O)N2Cc3ccccc3C2)c2cc(C#CCCO)ccc2n1 [Compound A997] | 10 to 1000 nM
CCNC(=O)c1ccc2nc(N)nc(C(=O)N(CC)CC)c2c1 [Compound A140, 2-Amino-6-ethylcarbamoyl-4-diethylcarbamoylquinazoline] | > 10000 nM
CNCc1ccccc1-c1ccc2nc(N)nc(C(=O)N3Cc4ccccc4C3)c2c1 [Compound A933] | 10 to 1000 nM
CNC(=O)c1nc(N)nc2ccccc12 [Compound A1, 2-amino-4-methylcarbamoylquinazoline] | > 10000 nM
CN(C)CCCNc1ccc2nc(N)nc(C(=O)N3Cc4ccccc4C3)c2c1 [Compound A940] | > 10000 nM
Nc1nc(C(=O)N2Cc3ccccc3C2)c2cc(-c3ccncc3)ccc2n1 [Compound A922, 2-Amino-6-(pyridin-4-yl)-4-(1,3-dihydroisoindol-2-ylcarbonyl)quinazoline] | 10 to 1000 nM
Nc1nc(C(=O)N2Cc3ccccc3C2)c2cc(NC3CCC(O)CC3)ccc2n1 (stereo not shown) [Compound A951] | 1000 to 10000 nM
CCN(CC)C(=O)c1nc(N)nc2ccccc12 [Compound A7, 2-Amino-4-diethylcarbamoylquinazoline] | > 10000 nM
Nc1nc(C(=O)N2Cc3ccccc3C2)c2cc(-c3ccccc3CN3CCNCC3)ccc2n1 [Compound A971] | 10 to 1000 nM
CCN(CC)C(=O)c1nc(N)nc2ccc(-c3ccccc3)cc12 [Compound A138, 2-Amino-6-phenyl-4-diethylcarbamoylquinazoline] | 1000 to 10000 nM
CCc1ccc2nc(N)nc(C(=O)N3Cc4ccc(O)cc4C3)c2c1 [Compound A95, 2-Amino-6-ethyl-4-(5-hydroxy-1,3-dihydroisoindol-2-ylcarbonyl)quinazoline] | 1000 to 10000 nM
C#CCCNC(=O)c1nc(N)nc2ccccc12 [Compound A19, 2-Amino-4-propargylmethylcarbamoylquinazoline] | > 10000 nM
CC(C)c1ccc2nc(N)nc(C(=O)N3Cc4ccccc4C3)c2c1 [Compound A118, 2-Amino-6-isopropyl-4-(1,3-dihydroisoindol-2-ylcarbonyl)quinazoline] | 1000 to 10000 nM
CCN(C)C(=O)c1nc(N)nc2ccccc12 [Compound A6, 2-Amino-4-ethylmethylcarbamoylquinazoline] | > 10000 nM
Nc1nc(C(=O)N2Cc3ccccc3C2)c2cc(-c3ccccc3CNC3CCC(O)CC3)ccc2n1 (stereo not shown) [Compound A977] | 1000 to 10000 nM
CCc1ccc2nc(N)nc(C(=O)N(CC)CC)c2c1 [Compound A98, 2-Amino-6-ethyl-4-diethylcarbamoylquinazoline] | 1000 to 10000 nM
CCc1ccc2nc(N)nc(C(=O)N3Cc4ccccc4C3)c2c1 [Compound A97, 2-Amino-6-ethyl-4-(1,3-dihydroisoindol-2-ylcarbonyl)quinazoline] | 10 to 1000 nM
CCNCc1ccccc1-c1ccc2nc(N)nc(C(=O)N3Cc4ccccc4C3)c2c1 [Compound A978] | 10 to 1000 nM
CN1CCN(c2ccc3nc(N)nc(C(=O)N4Cc5ccccc5C4)c3c2)CC1 [Compound A941] | 1000 to 10000 nM
